Test results published in ChEMBL document CHEMBL2073932, “Induction of human MDR1 gene expression by 2-acetylaminofluorene is mediated by effectors of the phosphoinositide 3-kinase pathway that activate NF-kappaB signaling” (Oncogene, 2002).

Tests used:
[1] = target: T1, ATP-dependent translocase ABCB1 (Homo sapiens, UniProt P08183); experiment: TP_TRANSPORTER: RNase protection assay in HepG2 cells; assay type: functional, cell-based
[2] = target: T1, ATP-dependent translocase ABCB1; experiment: TP_TRANSPORTER: RNase protection assay in embryonic 293 cells; assay type: functional, cell-based; conditions: hek293

T1 sequence (P08183 whole entry): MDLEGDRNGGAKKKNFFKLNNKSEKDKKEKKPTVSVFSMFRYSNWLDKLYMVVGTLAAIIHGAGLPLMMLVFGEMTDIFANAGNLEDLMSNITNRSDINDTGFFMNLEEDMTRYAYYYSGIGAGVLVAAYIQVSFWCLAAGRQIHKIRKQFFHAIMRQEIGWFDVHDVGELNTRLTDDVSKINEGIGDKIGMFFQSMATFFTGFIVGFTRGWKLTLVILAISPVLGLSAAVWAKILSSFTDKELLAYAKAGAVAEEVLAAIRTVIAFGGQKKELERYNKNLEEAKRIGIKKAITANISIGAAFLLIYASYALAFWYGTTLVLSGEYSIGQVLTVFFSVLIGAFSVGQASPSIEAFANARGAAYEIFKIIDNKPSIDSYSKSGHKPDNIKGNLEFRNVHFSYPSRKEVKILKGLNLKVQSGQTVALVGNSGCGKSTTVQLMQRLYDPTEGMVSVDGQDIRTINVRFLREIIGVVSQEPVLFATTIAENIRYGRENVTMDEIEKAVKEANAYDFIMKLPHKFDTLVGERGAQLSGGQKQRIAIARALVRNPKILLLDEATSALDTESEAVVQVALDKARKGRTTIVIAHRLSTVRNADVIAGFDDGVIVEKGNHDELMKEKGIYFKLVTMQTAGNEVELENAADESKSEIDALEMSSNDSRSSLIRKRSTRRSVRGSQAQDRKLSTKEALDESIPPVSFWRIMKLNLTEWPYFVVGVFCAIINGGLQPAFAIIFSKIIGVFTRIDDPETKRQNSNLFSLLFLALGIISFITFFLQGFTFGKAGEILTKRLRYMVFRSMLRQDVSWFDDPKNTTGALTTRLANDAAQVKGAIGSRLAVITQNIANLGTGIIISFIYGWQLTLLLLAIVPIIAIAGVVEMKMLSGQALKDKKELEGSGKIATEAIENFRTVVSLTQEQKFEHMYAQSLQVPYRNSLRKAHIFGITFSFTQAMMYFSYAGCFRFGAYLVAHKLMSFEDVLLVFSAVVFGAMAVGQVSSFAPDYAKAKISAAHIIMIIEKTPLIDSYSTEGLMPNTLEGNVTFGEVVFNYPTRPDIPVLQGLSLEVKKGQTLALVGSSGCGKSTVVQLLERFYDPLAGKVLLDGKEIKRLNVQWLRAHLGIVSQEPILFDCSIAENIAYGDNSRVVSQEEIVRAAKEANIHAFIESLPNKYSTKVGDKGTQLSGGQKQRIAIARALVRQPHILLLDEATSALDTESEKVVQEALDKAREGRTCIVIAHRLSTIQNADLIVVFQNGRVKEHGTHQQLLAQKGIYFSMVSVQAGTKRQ

CC(=O)Nc1ccc2c(c1)Cc1ccccc1-2 [2-ACETYLAMINOFLUORENE]
Activity [1]: inducer [+] | Activity [2]: inducer [+]
